Source: patent US20100324285A1, “ANTIINFLAMMATORY AGENT COMPRISING 2-AMINOPHENOL OR DERIVATIVE THEREOF AS ACTIVE INGREDIENT” (priority 2006, published 2010)

Assays:
RBL-2H3 = assay: Degranulation reaction of basocyte (β-hexosaminidase release); format: cell-based, rat; conditions: for concentration at which inhibiting activity on degranulation was exerted: summary of Table 3
Method: Degranulation rate (%) and inhibition rate of degranulation (%) were calculated based on the measurements of β-hexosaminidase activity in the granules released from the cells by degranulation reaction.
Rat cancer cells from basocyte RBL-2H3(catalognumber“JCRB0023”, commercialized by Health Science Research Resources Bank of Japan Health Sciences Foundation), known to be degranulated by cross-linkage of IgE, were used after cultured in a MEM medium (commercialized by Nissui Pharmaceutical Co., Ltd.) supplemented with 10% (v/v) FCS.
The above cells were recovered from a flask by conventional trypsin-EDTA treatment, then suspended in a MEM medium supplemented with 10% (v/v) FCS to give a cell concentration of 5×10^5 cells/ml. The suspension was inoculated to a 24-well microplate in a volume of 400 μl per well, cultured in a 5% (v/v) carbon dioxide incubator for 3 to 5 hours, then admixed with 0.625 μg/ml of anti dinitrophenol (hereinafter abbreviated as “DNP”) mouse IgE (commercialized by Sigma-Aldrich, Inc., diluted by MEM medium supplied with 10% (v/v) FCS) in a volume of 100 μl per well to sensitize the cells by IgE (a final concentration of the anti DNP-IgE was 0.125 μg/ml). After the cells were cultured in the 5% (v/v) carbon dioxide incubator overnight, the supernatant was removed by suction, and then each well was washed twice with Siraganian buffer (119 mM NaCl, 5 mM KCl, 0.4 mM MgCl2, 25 mM piperazine-N,N″-bis(2-ethane sulfonic acid) (PIPES), 40 mM NaOH, pH 7.2) by 500 μl per well. After admixed with Siraganian buffer containing 0.1% bovine serum albumin (BSA), 5.6 mM glucose and 1 mM CaCl2 (hereinafter described as “BSA-containing Siraganian buffer) in a volume of 160 μl per well, the microplate was warmed at 37° C. for 15 minutes. As test samples, 2-aminophenoxazine-3-one (questiomycin A), arbutin having skin-whitening effect and oxatomide used as therapeutic agents for allergic diseases (positive control) were diluted with BSA-containing Siraganian buffer to give the concentrations shown in Table 3, any of the test samples was added by 20 μl per well, then the microplate was warmed at 37° C. for 15 minutes (wells with the test samples). The well with any of the test samples was admixed with DNP-albumin (commercialized by Sigma-Aldrich, Inc.) diluted with BSA-containing Siraganian buffer to give a concentration of 50 μg/ml by 20 μl per well, and warmed at 37° C. for 15 minutes. After the 24-well microplate was cooled on ice for 10 minutes, the supernatant was collected and 100 μl thereof was injected into a 96-well microplate to measure the β-hexosaminidase activity in the supernatant. As negative control, BL-2H3 cells were cultured and treated in the same way as the wells admixed with the test samples except for that FCS-supplemented MEM medium containing no antibody was used, and the β-hexosaminidase activity in the supernatant was measured (the well without IgE sensitization). After the supernatants were removed from some of the wells without IgE sensitization, the wells were washed twice with BSA-containing Siraganian buffer and admixed with BSA-containing Siraganian buffer by 200 μl per well. The cells were broken by twice repeating freezing at −80° C. and thawing, whole medium containing the broken cells was collected, centrifuged at 1,500 rpm for 10 minutes, and then 100 μl of the supernatant was injected into a 96-well microplate to measure the β-hexosaminidase activity of the whole granule extract.
Each well of the 96-well microplate injected with any of the supernatant from the wells with the test samples, the supernatant from the wells without IgE sensitization or the whole granule extract described above was admixed with 50 μl of citrate buffer (pH 4.5) containing 1 mM 4-nitrophenyl-N-acetyl-β-glucosaminide (PNAG) as substrate, kept at 37° C. for 1 hour, and then the reaction was stopped by adding 50 μl of 0.1 M sodium carbonate (pH 10.5). […]

[1] = system: Mouse melanoma cell line B16; assay: Melanin synthesis in B16 cells; format: cell-based; conditions: for Amount of melanin (%): 5 days, per mg protein versus control; for inhibiting effect on melanin production in combinational use: used with 2-aminophenoxsazine-3-one
Method: (§1) As control, a system with no test sample was provided. […] The amount of protein was measured by conventional Bradfordmethod and the amount of melanin per 1 mg of protein was calculated. The amount of melanin (%) was calculated according to Formula 4, and the living cell rate (%) was calculated according to Formula 5.
As control, a system with no test sample was provided. […] The amount of protein was measured by conventional Bradford method and the amount of melanin per 1 mg of protein was calculated. The amount of melanin (%) was calculated according to Formula 4.

RAW264.7 cells [2] = assay: NO production by macrophage RAW264.7, Griess method; format: cell-based, mouse; conditions: LPS + IFN-γ, 2 days, relative level versus control
Text: As macrophage cells, RAW264.7 cell strain from mouse or macrophage cells obtained from laboratory animals such as mouse can be used. The amount of produced NO can be measured by conventional Griess method. […] RAW264.7 cells, a murine macrophage cell strain, were suspended in PRMI1640 medium supplied with 10% (v/v) fetal calf serum (hereinafter abbreviated as “FCS”) to give a cell suspension with a cell concentration of 1×10^6 cells/ml. […] The experimental system without the test samples described above was set as control. […] NO production, PGE2 production and macrophage growth are indicated as relative levels versus controls.

RAW264.7 cells [3] = assay: Macrophage growth, living cell count; format: cell-based, mouse; conditions: 2 days, relative level versus control
Text: (§2) RAW264.7 cells, a murine macrophage cell strain, were suspended in PRMI1640 medium supplied with 10% (v/v) fetal calf serum (hereinafter abbreviated as “FCS”) to give a cell suspension with a cell concentration of 1×10^6 cells/ml. […] The experimental system without the test samples described above was set as control. […] NO production, PGE2 production and macrophage growth are indicated as relative levels versus controls.

RAW264.7 cells [4] = assay: PGE2 production by macrophage RAW264.7, PGE2-EIA kit; format: cell-based, mouse; conditions: LPS + IFN-γ, 2 days, relative level versus control
Text: as §2

[5] = system: Mouse melanoma cell line B16; assay: Living cell rate of B16 cells; conditions: mouse, 5 days
Method: as §1

## OC[C@H]1O[C@@H](Oc2ccc(O)cc2)[C@H](O)[C@@H](O)[C@@H]1O [AB, arbutin]
RBL-2H3; Rattus norvegicus, RBL-2H3, 31.3 μM, read-out: Inhibition intensity of degranulation
  inhibition at 31.3 µM: -30 to 30%
RBL-2H3; Rattus norvegicus, RBL-2H3, 200 μM, read-out: Inhibition intensity of degranulation
  inhibition at 200 µM: -30 to 30%
RBL-2H3; Rattus norvegicus, RBL-2H3, 500 μM, read-out: Inhibition intensity of degranulation
  inhibition at 500 µM: -30 to 30%
RBL-2H3; Rattus norvegicus, RBL-2H3, 2000 μM, read-out: Inhibition intensity of degranulation
  inhibition at 2000 µM: -30 to 30%
RBL-2H3
  concentration at which inhibiting activity on degranulation was exerted: no inhibition activity on degranulation

## O=C1O[C@H]([C@@H](O)CO)C(O)=C1O[C@H]1O[C@H](CO)[C@@H](O)[C@H](O)[C@H]1O [Ascorbic acid 2-glucoside, ascorbic acid 2-glucoside]
[1]; 2 mM
  Amount of melanin (%): 80%
[1]; 4 mM
  Amount of melanin (%): 68%
[1]; 8 mM
  Amount of melanin (%): 63%
[1]
  inhibiting effect on melanin production in combinational use: synergistically exert inhibiting effect on melanin production

## COc1ccc2c(c1)c(CC(=O)O)c(C)n2C(=O)c1ccc(Cl)cc1 [IN, indomethacin]
RAW264.7 cells [2]; 0.16 μM
  NO production (%): 86%
RAW264.7 cells [2]; 0.31 μM
  NO production (%): 84%
RAW264.7 cells [2]; 0.63 μM
  NO production (%): 81%
RAW264.7 cells [2]; 1.3 μM
  NO production (%): 82%
RAW264.7 cells [2]; 2.5 μM
  NO production (%): 80%
RAW264.7 cells [2]; 5.0 μM
  NO production (%): 80%
RAW264.7 cells [2]; 10 μM
  NO production (%): 78%
RAW264.7 cells [3]; 0.16 μM
  Macrophage growth (%): 102%
RAW264.7 cells [3]; 0.31 μM
  Macrophage growth (%): 104%
RAW264.7 cells [3]; 0.63 μM
  Macrophage growth (%): 108%
RAW264.7 cells [3]; 1.3 μM
  Macrophage growth (%): 117%
RAW264.7 cells [3]; 2.5 μM
  Macrophage growth (%): 120%
RAW264.7 cells [3]; 5.0 μM
  Macrophage growth (%): 122%
RAW264.7 cells [3]; 10 μM
  Macrophage growth (%): 120%
RAW264.7 cells [4]; 0.16 μM
  PGE2 production (%): 4%
RAW264.7 cells [4]; 0.31 μM
  PGE2 production (%): 4%
RAW264.7 cells [4]; 0.63 μM
  PGE2 production (%): 4%
RAW264.7 cells [4]; 1.3 μM
  PGE2 production (%): 3%
RAW264.7 cells [4]; 2.5 μM
  PGE2 production (%): 1%
RAW264.7 cells [4]; 5.0 μM
  PGE2 production (%): 2%
RAW264.7 cells [4]; 10 μM
  PGE2 production (%): 1%

## O=c1cc(CO)occ1O [Koji acid, kojic acid]
[1]; 0.5 mM
  Amount of melanin (%): 79%
[1]; 1 mM
  Amount of melanin (%): 71%
[1]; 2 mM
  Amount of melanin (%): 59%
[1]
  inhibiting effect on melanin production in combinational use: synergistically exert inhibiting effect on melanin production
[5]; 0.5 mM
  Living cell rate (%): 93%
[5]; 1 mM
  Living cell rate (%): 86%
[5]; 2 mM
  Living cell rate (%): 73%

## CS(=O)(=O)Nc1ccc([N+](=O)[O-])cc1OC1CCCCC1 [NS]
RAW264.7 cells [2]; 0.16 μM
  NO production (%): 90%
RAW264.7 cells [2]; 0.31 μM
  NO production (%): 89%
RAW264.7 cells [2]; 0.63 μM
  NO production (%): 87%
RAW264.7 cells [2]; 1.3 μM
  NO production (%): 85%
RAW264.7 cells [2]; 2.5 μM
  NO production (%): 85%
RAW264.7 cells [2]; 5.0 μM
  NO production (%): 88%
RAW264.7 cells [2]; 10 μM
  NO production (%): 84%
RAW264.7 cells [3]; 0.16 μM
  Macrophage growth (%): 95%
RAW264.7 cells [3]; 0.31 μM
  Macrophage growth (%): 97%
RAW264.7 cells [3]; 0.63 μM
  Macrophage growth (%): 99%
RAW264.7 cells [3]; 1.3 μM
  Macrophage growth (%): 102%
RAW264.7 cells [3]; 2.5 μM
  Macrophage growth (%): 100%
RAW264.7 cells [3]; 5.0 μM
  Macrophage growth (%): 105%
RAW264.7 cells [3]; 10 μM
  Macrophage growth (%): 110%
RAW264.7 cells [4]; 0.16 μM
  PGE2 production (%): 4%
RAW264.7 cells [4]; 0.31 μM
  PGE2 production (%): 4%
RAW264.7 cells [4]; 0.63 μM
  PGE2 production (%): 2%
RAW264.7 cells [4]; 1.3 μM
  PGE2 production (%): 1%
RAW264.7 cells [4]; 2.5 μM
  PGE2 production (%): 1%
RAW264.7 cells [4]; 5.0 μM
  PGE2 production (%): 5%
RAW264.7 cells [4]; 10 μM
  PGE2 production (%): 2%

## O=c1[nH]c2ccccc2n1CCCN1CCN(C(c2ccccc2)c2ccccc2)CC1 [OX, oxatomide]
RBL-2H3; Rattus norvegicus, RBL-2H3, 1.5 μM, read-out: Inhibition intensity of degranulation
  inhibition at 1.5 µM: -30 to 30%
RBL-2H3; Rattus norvegicus, RBL-2H3, 5 μM, read-out: Inhibition intensity of degranulation
  inhibition at 5 µM: -30 to 30%
RBL-2H3; Rattus norvegicus, RBL-2H3, 23 μM, read-out: Inhibition intensity of degranulation
  inhibition at 23 µM: 30 to 50%
RBL-2H3; Rattus norvegicus, RBL-2H3, 94 μM, read-out: Inhibition intensity of degranulation
  inhibition at 94 µM: ≥ 50%
RBL-2H3
  concentration at which inhibiting activity on degranulation was exerted: ≥ 23 µM

## OC[C@H]1O[C@H](O[C@H]2O[C@H](CO)[C@@H](O)[C@H](O)[C@H]2O)[C@H](O)[C@@H](O)[C@@H]1O [Trehalose, trehalose]
[1]; 20 mM
  Amount of melanin (%): 82%
[1]; 40 mM
  Amount of melanin (%): 75%
[1]; 80 mM
  Amount of melanin (%): 66%
[1]
  inhibiting effect on melanin production in combinational use: synergistically exert inhibiting effect on melanin production
